Among the data in patent US12459952B2, “TREM2 modulators” (Muna Therapeutics ApS, priority 2024, dated 2025) are Emax and EC50 values, retold here.

This test addresses T1, Human TREM2 (Homo sapiens, UniProt Q9NZC2).
T1 construct: expressed in transfected cells
In words: Human TREM2 cellular phospho-Syk AlphaLISA assay in HEK293/DAP12+TREM2 stable cell line. Conditions: HEK293/DAP12+TREM2 cells; for Emax: maximal response relative to the maximal response of the reference agonist, phospho-Syk AlphaLISA; for EC50: phospho-Syk (Tyr525/526) AlphaLISA signal, 30 min incubation. In kind it is cell-based. From the text: Human TREM2, in vitro Measurement of Triggering Receptor Expressed on Myeloid Cells 2 activity using cellular phosphorylation of Spleen Tyrosine Kinase (“Syk”) Assay
HEK-293 cells were co-transfected with separate plasmids encoding TREM2 and DAP12 to generate a stable cell line. After antibiotic selection, functional clone pool analysis and two successive limiting dilutions, the final clone “HEK293/DAP12+TREM2” underwent a qPCR analysis and a pharmacological validation.
TREM2 signaling through DAP12 was monitored in the HEK293/DAP12+TREM2 stable cell line by measuring the phosphorylation levels of the Syk kinase using the commercially available AlphaLISA SureFire Ultra p-SYK (Tyr525/526) Assay Kit (PerkinElmer #ALSU-PSYK), based on the Perkin Elmer AlphaScreen/AlphaLISA technology.
Compounds are transferred to the test plate and tested in full dose response, 8 concentrations in quadruplicate data points. Compound serial dilutions were performed at Cybi-Felix instrument in 100% DMSO and the dose response curves were assembled in automated fashion in 384MPT at Hamilton STARlet instrument. All the stock solutions were prepared at 20 mM in 100% DMSO. For compounds testing, the starting concentration was 100 μM, dilution steps 1:6. A different concentration's range was adapted for compound's activity based on the preliminary results. Finally, a 384MPT reformatted for all compounds at 8 concentrations, quadruplicates, was used as “mother to child” process with a CyBi@-Well dispenser in which 1 μL of each compound was moved into a destination plate pre-filled with […] of EMEM cell culture medium (BIOWHITTAKER_cat.BE12-125F), thus obtaining 3× concentrated compounds working solution. In columns 1-2 and 23-24 the control wells were added. In particular, dose response curves of a reference control agonist were included in column 1 and 24 as reference control agonist (Reference control agonists used include Human TREM2 polyclonal Antibody AF1828: R&D Systems; Human TREM2 monoclonal Antibody MAB1828: R&D Systems). The dose response curves were tested starting at 30 μM, dilution step 1:6. Both “source” compound plate and “destination” compound plate were barcoded and a relationship between the two plates was thus generated.
HEK293/DAP12+TREM2 cells were cultured in EMEM medium supplemented with IX Penicillin/Streptomycin (BIOWHITTAKER_cat.DE17-602E), ULTRAGLUTAMINE I 200 mM, 10% Fetal Bovine Serum plus antibiotics referred to as “HEK293 Culture Medium”. The day before the experiment, cells were detached by gentle wash with DPBS, followed by 5 min incubation at 37° C. with Trypsin solution. Cells were then diluted in HEK293 Culture Medium without antibiotics, counted and seeded into 384-well poly-D-Lysine coated microplates black/clear bottom (GREINER 781946) at a density of 10,000 cells/well in 25 μL/well by the use of a MATRIX WellMate dispenser. Plates were placed into a humidified cell culture incubator at 37° C. with 5% CO2 until the experimental day. 20-24 hours after seeding mature medium was removed and replaced with 10 μL/well of EMEM cell medium supplemented with 0.1% Pluronic F-68 non-ionic surfactant (Thermofisher, 24040032), referred to as “Assay Buffer”, using the CyBi@-Well instrument. Then 5 μL/well of Assay Buffer containing 3× concentrated test compounds or the reference control agonist (in 0.5% final DMSO concentration) were added to the cells with the CyBi@-Well instrument. Cell plates were incubated for 30 min into a humidified cell culture incubator at 37° C. with 5% CO2, then the medium was removed by manually discard. 20 μL/well of lysis buffer were dispensed using the CyBi@-Well instrument and plates were incubated for 10 min at room temperature on a plate shaker (350 rpm). Then, 10 μL/well of lysate were transferred to the Alpha plates.
The CyBi@-Well instrument was used to dispense 5 μL/well of AlphaLISA Acceptor Bead Solution in IX Immunoassay buffer (Perkin Elmer AL000F). […]

T1 sequence (Q9NZC2 19-230): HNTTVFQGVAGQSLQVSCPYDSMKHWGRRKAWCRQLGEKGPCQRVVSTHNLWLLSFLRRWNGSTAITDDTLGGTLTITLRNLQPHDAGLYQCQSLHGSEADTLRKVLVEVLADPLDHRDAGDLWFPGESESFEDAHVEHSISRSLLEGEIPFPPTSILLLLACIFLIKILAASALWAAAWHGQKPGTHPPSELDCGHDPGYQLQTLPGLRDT
T1 sequence (O43914 22-113 partner): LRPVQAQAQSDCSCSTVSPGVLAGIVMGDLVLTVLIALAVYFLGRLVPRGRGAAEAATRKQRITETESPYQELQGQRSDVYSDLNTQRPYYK

Take `Cn1c(C(F)(F)F)nc2c(-c3ccc(F)cc3F)nc(N3CC(Oc4cnn(C5CC5)c4)C3)nc2c1=O` [Example 32, 6-(3-((1-cyclopropyl-1H-pyrazol-4-yl)oxy)azetidin-1-yl)-8-(2,4-difluorophenyl)-3-methyl-2-(trifluoromethyl)pyrimido[5,4-d]pyrimidin-4(3H)-one]: the maximal effect (Emax) is < 75% and the EC50 is 10 to 100 nM.

As for `Cc1nnc(OC2CN(c3nc(-c4ccc(C#N)cc4F)c4nc(C(F)(F)F)n(C)c(=O)c4n3)C2)s1` [Example 3, 3-fluoro-4-(7-methyl-2-(3-((5-methyl-1,3,4-thiadiazol-2-yl)oxy)azetidin-1-yl)-8-oxo-6-(trifluoromethyl)-7,8-dihydropyrimido[5,4-d]pyrimidin-4-yl)benzonitrile], the Emax is < 75% and the EC50 lay within 100 to 1000 nM.

In the case of `Cn1cc(-c2nc(N3CC(Oc4cnn(C5CC5)c4)C3)nc3c(=O)n(C)c(C(F)(F)F)nc23)ccc1=O` [Example 39, 6-(3-((1-cyclopropyl-1H-pyrazol-4-yl)oxy)azetidin-1-yl)-3-methyl-8-(1-methyl-6-oxo-1,6-dihydropyridin-3-yl)-2-(trifluoromethyl)pyrimido[5,4-d]pyrimidin-4(3H)-one], the Emax is 75 to 110% and the EC50 is 100 to 1000 nM.

In turn, `Cn1c(C(F)(F)F)nc2c(-c3ccc(C#N)cc3F)nc(N3CC(Oc4cnn(C5CCC5)c4)C3)nc2c1=O` [Example 16, 4-(2-(3-((1-cyclobutyl-1H-pyrazol-4-yl)oxy)azetidin-1-yl)-7-methyl-8-oxo-6-(trifluoromethyl)-7,8-dihydropyrimido[5,4-d]pyrimidin-4-yl)-3-fluorobenzonitrile] displayed an Emax of 75 to 110% and a half-maximal effective concentration (EC50) of 10 to 100 nM.

Turning to `Cc1cc(CC2CN(c3nc(-c4ccc(F)cc4F)c4nc(C(F)(F)F)n(C)c(=O)c4n3)C2)ccn1` [Example 34, 8-(2,4-difluorophenyl)-3-methyl-6-(3-((2-methylpyridin-4-yl)methyl)azetidin-1-yl)-2-(trifluoromethyl)pyrimido[5,4-d]pyrimidin-4(3H)-one], the maximal effect (Emax) is < 75% and the 50% effective concentration (EC50) was 10 to 100 nM.

For the compound `CN(c1cnn(C2CC2)c1)C1CN(c2nc(-c3ccc(F)cc3F)c3nc(C(F)(F)F)n(C)c(=O)c3n2)C1` [Example 33, 6-(3-((1-cyclopropyl-1H-pyrazol-4-yl)(methyl)amino)azetidin-1-yl)-8-(2,4-difluorophenyl)-3-methyl-2-(trifluoromethyl)pyrimido[5,4-d]pyrimidin-4(3H)-one], the Emax fell in the range of 75 to 110% and the EC50 was 100 to 1000 nM.

The compound `Cn1c(C(F)(F)F)nc2c(-c3ccc(F)cc3F)nc(N3CC(Cc4cnn(C5CC5)c4)C3)nc2c1=O` [Example 31, 6-(3-((1-cyclopropyl-1H-pyrazol-4-yl)methyl)azetidin-1-yl)-8-(2,4-difluorophenyl)-3-methyl-2-(trifluoromethyl)pyrimido[5,4-d]pyrimidin-4(3H)-one] came in with an Emax of 75 to 110% and an EC50 of 100 to 1000 nM.

With `Cn1c(C(F)(F)F)nc2c(-c3ccc(F)cc3F)nc(N3CC(Oc4cnn(C5CC5)c4)C3)cc2c1=O` [Example 40, 6-(3-((1-cyclopropyl-1H-pyrazol-4-yl)oxy)azetidin-1-yl)-8-(2,4-difluorophenyl)-3-methyl-2-(trifluoromethyl)pyrido[3,4-d]pyrimidin-4(3H)-one], the Emax is < 75% and the half-maximal effective concentration (EC50) lay within 100 to 1000 nM.

In the case of `Cn1c(C(F)(F)F)nc2c(-c3ccc(C#N)cc3F)nc(N3CC(Oc4cnn(CC(F)F)c4)C3)nc2c1=O` [Example 17, 4-(2-(3-((1-(2,2-difluoroethyl)-1H-pyrazol-4-yl)oxy)azetidin-1-yl)-7-methyl-8-oxo-6-(trifluoromethyl)-7,8-dihydropyrimido[5,4-d]pyrimidin-4-yl)-3-fluorobenzonitrile], the Emax was 75 to 110% and the concentration giving a half-maximal response (EC50) is 100 to 1000 nM.

`COc1ccc(-c2nc(N3CC(Oc4cnn(C5CC5)c4)C3)nc3c(=O)n(C)c(C(F)(F)F)nc23)c(F)c1` [Example 36, 6-(3-((1-cyclopropyl-1H-pyrazol-4-yl)oxy)azetidin-1-yl)-8-(2-fluoro-4-methoxyphenyl)-3-methyl-2-(trifluoromethyl)pyrimido[5,4-d]pyrimidin-4(3H)-one]: the maximal response (Emax) is < 75% and the EC50 fell in the range of 100 to 1000 nM.

As for `Cn1c(C(F)(F)F)nc2c(-c3ccc(C#N)cc3F)nc(N3CC(Oc4cnnc(Cl)c4)C3)nc2c1=O` [Example 26, 4-(2-(3-((6-chloropyridazin-4-yl)oxy)azetidin-1-yl)-7-methyl-8-oxo-6-(trifluoromethyl)-7,8-dihydropyrimido[5,4-d]pyrimidin-4-yl)-3-fluorobenzonitrile], the Emax was < 75% and the EC50 is 100 to 1000 nM.

Turning to `Cc1cncc(OC2CN(c3nc(-c4ccc(C#N)cc4F)c4nc(C(F)(F)F)n(C)c(=O)c4n3)C2)n1` [Example 6, 3-fluoro-4-(7-methyl-2-(3-((6-methylpyrazin-2-yl)oxy)azetidin-1-yl)-8-oxo-6-(trifluoromethyl)-7,8-dihydropyrimido[5,4-d]pyrimidin-4-yl)benzonitrile], the Emax was < 75% and the EC50 was 100 to 1000 nM.

For `Cc1ncncc1OC1CN(c2nc(-c3ccc(C#N)cc3F)c3nc(C(F)(F)F)n(C)c(=O)c3n2)C1` [Example 29, 3-fluoro-4-(7-methyl-2-(3-((4-methylpyrimidin-5-yl)oxy)azetidin-1-yl)-8-oxo-6-(trifluoromethyl)-7,8-dihydropyrimido[5,4-d]pyrimidin-4-yl)benzonitrile], the Emax is < 75% and the 50% effective concentration (EC50) fell in the range of 100 to 1000 nM.

In turn, `Cn1c(C(F)(F)F)nc2c(-c3ccc(C#N)cc3F)nc(N3CC(Oc4cnn(C(F)F)c4)C3)nc2c1=O` [Example 14, 4-(2-(3-((1-(difluoromethyl)-1H-pyrazol-4-yl)oxy)azetidin-1-yl)-7-methyl-8-oxo-6-(trifluoromethyl)-7,8-dihydropyrimido[5,4-d]pyrimidin-4-yl)-3-fluorobenzonitrile] had a maximal effect (Emax) of 75 to 110% and a concentration giving a half-maximal response (EC50) of 10 to 100 nM.

As to `CCCn1cc(OC2CN(c3nc(-c4ccc(C#N)cc4F)c4nc(C(F)(F)F)n(C)c(=O)c4n3)C2)cn1` [Example 12, 3-fluoro-4-(7-methyl-8-oxo-2-(3-((1-propyl-1H-pyrazol-4-yl)oxy)azetidin-1-yl)-6-(trifluoromethyl)-7,8-dihydropyrimido[5,4-d]pyrimidin-4-yl)benzonitrile], the maximal response (Emax) is 75 to 110% and the concentration giving a half-maximal response (EC50) was 100 to 1000 nM.

Turning to `CCc1nnc(OC2CN(c3nc(-c4ccc(C#N)cc4F)c4nc(C(F)(F)F)n(C)c(=O)c4n3)C2)s1` [Example 4, 4-(2-(3-((5-ethyl-1,3,4-thiadiazol-2-yl)oxy)azetidin-1-yl)-7-methyl-8-oxo-6-(trifluoromethyl)-7,8-dihydropyrimido[5,4-d]pyrimidin-4-yl)-3-fluorobenzonitrile], the maximal effect (Emax) was 75 to 110% and the EC50 is 100 to 1000 nM.

`CC(C)n1cc(OC2CN(c3nc(-c4ccc(C#N)cc4F)c4nc(C(F)(F)F)n(C)c(=O)c4n3)C2)cn1` [Example 11, 3-fluoro-4-(2-(3-((1-isopropyl-1H-pyrazol-4-yl)oxy)azetidin-1-yl)-7-methyl-8-oxo-6-(trifluoromethyl)-7,8-dihydropyrimido[5,4-d]pyrimidin-4-yl)benzonitrile]: the Emax lay within 75 to 110% and the half-maximal effective concentration (EC50) is 10 to 100 nM.
